Results published in the kinase profiling compilation of Christmann-Franck et al. (2016).

What was measured:
Test in all cases: radiometric filter-binding kinase assay, Kinase HotSpot
Settings in all cases: compound 0.5 µM; ATP 10 µM
MAP3K7 TAB1 (human) = MAP3K7 TAB1 (human) (UniProt O43318+Q15750)
EPHB2 (human) = EPHB2 (human) (UniProt P29323)
RET (human) = RET (human) (UniProt P07949)
PAK3 (human) = PAK3 (human) (UniProt O75914)
PRKCG (human) = PRKCG (human) (UniProt P05129)
CSNK2A2 (human) = CSNK2A2 (human) (UniProt P19784)
Chain of CSNK2A2 (human) (P19784 whole entry, looked up): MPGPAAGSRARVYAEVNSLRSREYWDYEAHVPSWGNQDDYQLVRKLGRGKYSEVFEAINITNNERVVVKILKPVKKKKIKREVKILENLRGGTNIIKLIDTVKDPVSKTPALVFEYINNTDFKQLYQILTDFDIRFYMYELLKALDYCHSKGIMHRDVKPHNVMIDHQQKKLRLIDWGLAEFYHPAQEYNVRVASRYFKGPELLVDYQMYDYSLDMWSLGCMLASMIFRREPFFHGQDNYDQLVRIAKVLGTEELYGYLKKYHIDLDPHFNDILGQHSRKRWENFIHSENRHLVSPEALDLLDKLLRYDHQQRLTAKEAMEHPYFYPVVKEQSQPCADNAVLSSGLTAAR

MAP4K4 (human) = MAP4K4 (human) (UniProt O95819)
RAF1 (human) = RAF1 (human) (UniProt P04049)
EPHA8 (human) = EPHA8 (human) (UniProt P29322)
TSSK2 (human) = TSSK2 (human) (UniProt Q96PF2)
PRKACA (human) = PRKACA (human) (UniProt P17612)
MUSK (human) = MUSK (human) (UniProt O15146)
MAP3K14 (human) = MAP3K14 (human) (UniProt Q99558)
Chain of MAP3K14 (human) (Q99558 whole entry, looked up): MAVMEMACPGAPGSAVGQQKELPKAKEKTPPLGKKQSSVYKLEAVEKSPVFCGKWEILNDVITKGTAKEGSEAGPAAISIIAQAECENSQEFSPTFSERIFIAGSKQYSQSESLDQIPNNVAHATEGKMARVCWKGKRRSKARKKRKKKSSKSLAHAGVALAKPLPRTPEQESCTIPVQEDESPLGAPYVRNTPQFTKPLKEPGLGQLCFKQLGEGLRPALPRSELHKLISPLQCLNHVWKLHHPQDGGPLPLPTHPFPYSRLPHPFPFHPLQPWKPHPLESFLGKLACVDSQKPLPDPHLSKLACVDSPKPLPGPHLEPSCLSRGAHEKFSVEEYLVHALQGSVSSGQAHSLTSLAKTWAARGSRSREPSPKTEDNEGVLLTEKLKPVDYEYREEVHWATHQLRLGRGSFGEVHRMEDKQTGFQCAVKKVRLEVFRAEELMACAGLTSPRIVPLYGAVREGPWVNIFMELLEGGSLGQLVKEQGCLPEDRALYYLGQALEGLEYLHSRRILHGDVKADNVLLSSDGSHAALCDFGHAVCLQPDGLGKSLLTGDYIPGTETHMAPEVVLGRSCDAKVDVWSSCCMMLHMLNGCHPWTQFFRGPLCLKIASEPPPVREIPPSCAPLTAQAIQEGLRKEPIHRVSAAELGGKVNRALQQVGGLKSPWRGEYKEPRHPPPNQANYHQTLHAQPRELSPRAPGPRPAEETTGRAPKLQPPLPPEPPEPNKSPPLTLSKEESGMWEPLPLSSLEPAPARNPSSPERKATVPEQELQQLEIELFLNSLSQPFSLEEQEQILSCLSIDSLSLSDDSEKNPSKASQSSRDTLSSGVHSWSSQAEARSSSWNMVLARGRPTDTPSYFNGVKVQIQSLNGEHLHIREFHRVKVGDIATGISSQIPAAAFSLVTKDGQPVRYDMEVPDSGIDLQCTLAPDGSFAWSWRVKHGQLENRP

ADRBK2 (human) = ADRBK2 (human) (UniProt P35626)
MAP4K5 (human) = MAP4K5 (human) (UniProt Q9Y4K4)
PRKD3 (human) = PRKD3 (human) (UniProt O94806)
IKBKB (human) = IKBKB (human) (UniProt O14920)
GRK4 (human) = GRK4 (human) (UniProt P32298)
KDR (human) = KDR (human) (UniProt P35968)
Chain of KDR (human) (P35968 whole entry, looked up): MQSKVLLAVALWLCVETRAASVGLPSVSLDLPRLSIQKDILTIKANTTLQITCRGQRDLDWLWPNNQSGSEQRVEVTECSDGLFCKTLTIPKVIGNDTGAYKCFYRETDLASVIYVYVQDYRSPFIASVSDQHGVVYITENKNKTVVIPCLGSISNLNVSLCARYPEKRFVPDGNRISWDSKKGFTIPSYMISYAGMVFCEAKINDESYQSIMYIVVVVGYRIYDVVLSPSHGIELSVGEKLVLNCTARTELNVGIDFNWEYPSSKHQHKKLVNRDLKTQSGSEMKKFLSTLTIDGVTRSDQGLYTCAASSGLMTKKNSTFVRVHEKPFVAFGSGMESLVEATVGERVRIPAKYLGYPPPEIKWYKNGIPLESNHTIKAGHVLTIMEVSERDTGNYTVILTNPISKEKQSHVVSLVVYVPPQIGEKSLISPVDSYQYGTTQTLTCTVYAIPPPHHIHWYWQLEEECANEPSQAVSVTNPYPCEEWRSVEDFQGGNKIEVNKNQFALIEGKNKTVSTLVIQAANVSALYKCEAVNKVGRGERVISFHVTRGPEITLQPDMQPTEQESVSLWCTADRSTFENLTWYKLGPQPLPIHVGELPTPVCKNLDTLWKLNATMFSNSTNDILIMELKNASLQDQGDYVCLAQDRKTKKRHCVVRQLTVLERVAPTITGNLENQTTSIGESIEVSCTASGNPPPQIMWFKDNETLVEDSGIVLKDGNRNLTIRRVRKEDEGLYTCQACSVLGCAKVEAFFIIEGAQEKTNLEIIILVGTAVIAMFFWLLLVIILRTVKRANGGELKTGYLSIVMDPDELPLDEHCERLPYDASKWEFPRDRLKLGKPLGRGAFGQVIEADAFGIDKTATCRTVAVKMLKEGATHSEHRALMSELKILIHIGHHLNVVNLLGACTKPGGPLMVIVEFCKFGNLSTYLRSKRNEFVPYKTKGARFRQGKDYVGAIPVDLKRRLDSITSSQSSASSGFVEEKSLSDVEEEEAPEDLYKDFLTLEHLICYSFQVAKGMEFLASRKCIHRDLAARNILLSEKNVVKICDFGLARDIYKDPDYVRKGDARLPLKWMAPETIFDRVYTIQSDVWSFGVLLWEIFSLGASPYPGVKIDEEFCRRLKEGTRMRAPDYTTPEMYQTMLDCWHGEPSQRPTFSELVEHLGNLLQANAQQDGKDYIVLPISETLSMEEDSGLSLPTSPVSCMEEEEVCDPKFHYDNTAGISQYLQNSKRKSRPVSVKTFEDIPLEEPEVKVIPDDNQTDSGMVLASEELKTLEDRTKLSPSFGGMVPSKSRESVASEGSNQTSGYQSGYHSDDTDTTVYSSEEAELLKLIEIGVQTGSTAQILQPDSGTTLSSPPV

PLK2 (human) = PLK2 (human) (UniProt Q9NYY3)
MLTK (human) = MLTK (human) (UniProt Q9NYL2)
RPS6KA5 KD2 (human) = RPS6KA5 KD2 (human) (UniProt O75582)
PRKCA (human) = PRKCA (human) (UniProt P17252)
FLT1 (human) = FLT1 (human) (UniProt P17948)
CDK4 CCND1 (human) = CDK4 CCND1 (human) (UniProt P24385+P11802)
INSR (human) = INSR (human) (UniProt P06213)
PDGFRB (human) = PDGFRB (human) (UniProt P09619)
STK11 (human) = STK11 (human) (UniProt Q15831)
DYRK3 (human) = DYRK3 (human) (UniProt O43781)
NEK11 (human) = NEK11 (human) (UniProt Q8NG66)
CLK3 (human) = CLK3 (human) (UniProt P49761)
ERBB4 (human) = ERBB4 (human) (UniProt Q15303)
IKBKE (human) = IKBKE (human) (UniProt Q14164)
PASK (human) = PASK (human) (UniProt Q96RG2)
EPHA5 (human) = EPHA5 (human) (UniProt P54756)
MYLK2 (human) = MYLK2 (human) (UniProt Q9H1R3)
Chain of MYLK2 (human) (Q9H1R3 whole entry, looked up): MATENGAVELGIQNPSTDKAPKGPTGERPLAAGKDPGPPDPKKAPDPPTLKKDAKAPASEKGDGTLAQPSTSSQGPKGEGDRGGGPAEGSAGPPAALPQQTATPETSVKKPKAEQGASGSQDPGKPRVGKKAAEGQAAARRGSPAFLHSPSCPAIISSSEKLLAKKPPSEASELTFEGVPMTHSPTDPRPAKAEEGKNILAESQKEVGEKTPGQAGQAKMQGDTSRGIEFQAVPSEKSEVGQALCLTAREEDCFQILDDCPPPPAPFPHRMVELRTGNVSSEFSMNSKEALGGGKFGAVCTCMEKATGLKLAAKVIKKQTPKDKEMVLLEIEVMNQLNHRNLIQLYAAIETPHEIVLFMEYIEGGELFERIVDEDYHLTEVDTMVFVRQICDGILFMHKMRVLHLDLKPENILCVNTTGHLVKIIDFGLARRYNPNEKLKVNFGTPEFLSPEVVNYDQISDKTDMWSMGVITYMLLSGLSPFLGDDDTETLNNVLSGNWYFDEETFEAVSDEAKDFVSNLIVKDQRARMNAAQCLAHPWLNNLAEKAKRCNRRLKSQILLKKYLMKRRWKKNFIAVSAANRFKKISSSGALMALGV

CSNK1E (human) = CSNK1E (human) (UniProt P49674)
PKN1 (human) = PKN1 (human) (UniProt Q16512)
CAMKK2 (human) = CAMKK2 (human) (UniProt Q96RR4)
AKT1 (human) = AKT1 (human) (UniProt P31749)
MAPKAPK2 (human) = MAPKAPK2 (human) (UniProt P49137)
CSNK1A1 (human) = CSNK1A1 (human) (UniProt P48729)
Chain of CSNK1A1 (human) (P48729 whole entry, looked up): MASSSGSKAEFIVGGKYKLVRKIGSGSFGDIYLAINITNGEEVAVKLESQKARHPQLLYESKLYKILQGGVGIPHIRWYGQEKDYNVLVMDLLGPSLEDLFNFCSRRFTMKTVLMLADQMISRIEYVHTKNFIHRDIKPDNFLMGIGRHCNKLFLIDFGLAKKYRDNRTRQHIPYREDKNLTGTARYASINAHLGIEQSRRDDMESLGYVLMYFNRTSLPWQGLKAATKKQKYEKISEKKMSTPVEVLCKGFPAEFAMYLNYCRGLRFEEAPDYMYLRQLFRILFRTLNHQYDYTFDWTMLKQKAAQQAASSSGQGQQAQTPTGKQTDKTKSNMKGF

Chain of MAP3K7 TAB1 (human) (O43318 whole entry, looked up): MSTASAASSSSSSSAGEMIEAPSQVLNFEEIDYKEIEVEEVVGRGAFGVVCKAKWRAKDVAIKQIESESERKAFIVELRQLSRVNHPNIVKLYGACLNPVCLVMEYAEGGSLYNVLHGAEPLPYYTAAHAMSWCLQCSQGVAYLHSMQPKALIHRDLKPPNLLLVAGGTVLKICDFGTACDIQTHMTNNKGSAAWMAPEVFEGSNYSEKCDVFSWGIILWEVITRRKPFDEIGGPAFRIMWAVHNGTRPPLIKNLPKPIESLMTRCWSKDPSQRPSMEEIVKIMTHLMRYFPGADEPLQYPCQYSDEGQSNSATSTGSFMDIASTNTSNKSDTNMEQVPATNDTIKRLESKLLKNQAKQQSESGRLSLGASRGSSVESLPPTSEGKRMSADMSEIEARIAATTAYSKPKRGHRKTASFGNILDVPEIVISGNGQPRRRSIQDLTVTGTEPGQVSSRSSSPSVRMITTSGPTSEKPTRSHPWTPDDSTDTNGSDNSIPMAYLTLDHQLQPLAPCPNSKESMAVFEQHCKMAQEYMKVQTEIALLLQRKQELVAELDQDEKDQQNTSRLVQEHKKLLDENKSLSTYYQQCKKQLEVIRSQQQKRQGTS
Chain of MAP3K7 TAB1 (human) (Q15750 whole entry, looked up): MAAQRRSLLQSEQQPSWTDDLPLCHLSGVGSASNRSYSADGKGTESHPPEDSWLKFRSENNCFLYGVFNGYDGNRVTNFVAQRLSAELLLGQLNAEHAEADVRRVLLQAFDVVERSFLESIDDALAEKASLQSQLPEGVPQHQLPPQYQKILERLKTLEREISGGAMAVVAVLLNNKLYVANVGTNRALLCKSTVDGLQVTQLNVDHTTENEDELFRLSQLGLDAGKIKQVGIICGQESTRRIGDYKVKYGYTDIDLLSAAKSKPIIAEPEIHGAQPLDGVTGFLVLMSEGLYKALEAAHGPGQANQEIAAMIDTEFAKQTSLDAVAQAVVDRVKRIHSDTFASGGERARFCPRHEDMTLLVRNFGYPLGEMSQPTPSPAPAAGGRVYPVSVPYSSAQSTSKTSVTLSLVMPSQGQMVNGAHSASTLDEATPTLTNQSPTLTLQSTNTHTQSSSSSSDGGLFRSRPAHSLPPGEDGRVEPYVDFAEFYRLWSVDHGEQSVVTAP

CC#CC(=O)Nc1cc2c(Nc3ccc(F)c(Cl)c3)ncnc2cn1
residual activity (MAP3K7 TAB1 (human)): 100% | residual activity (EPHB2 (human)): 80.9% | residual activity (RET (human)): 84.3% | residual activity (PAK3 (human)): 99% | residual activity (PRKCG (human)): 97.2% | residual activity (CSNK2A2 (human)): 96.5% | residual activity (MAP4K4 (human)): 110% | residual activity (RAF1 (human)): 85.6% | residual activity (EPHA8 (human)): 100% | residual activity (TSSK2 (human)): 100% | residual activity (PRKACA (human)): 97.7% | residual activity (MUSK (human)): 79.6% | residual activity (MAP3K14 (human)): 80.4% | residual activity (ADRBK2 (human)): 103% | residual activity (MAP4K5 (human)): 100% | residual activity (PRKD3 (human)): 103% | residual activity (IKBKB (human)): 102% | residual activity (GRK4 (human)): 104% | residual activity (KDR (human)): 98.2% | residual activity (PLK2 (human)): 103% | residual activity (MLTK (human)): 85.8% | residual activity (RPS6KA5 KD2 (human)): 103% | residual activity (PRKCA (human)): 101% | residual activity (FLT1 (human)): 100% | residual activity (CDK4 CCND1 (human)): 98.6% | residual activity (INSR (human)): 99.6% | residual activity (PDGFRB (human)): 103% | residual activity (STK11 (human)): 99.6% | residual activity (DYRK3 (human)): 101% | residual activity (NEK11 (human)): 86.6% | residual activity (CLK3 (human)): 47.1% | residual activity (ERBB4 (human)): 1.95% | residual activity (IKBKE (human)): 98.9% | residual activity (PASK (human)): 101% | residual activity (EPHA5 (human)): 101% | residual activity (MYLK2 (human)): 99.9% | residual activity (CSNK1E (human)): 93.6% | residual activity (PKN1 (human)): 101% | residual activity (CAMKK2 (human)): 103% | residual activity (AKT1 (human)): 98.1% | residual activity (MAPKAPK2 (human)): 104% | residual activity (CSNK1A1 (human)): 107%

Nc1cccc(-c2cc3c(Oc4cccc(O)c4)ncnc3[nH]2)c1
residual activity (MAP3K7 TAB1 (human)): 63% | residual activity (EPHB2 (human)): 40.7% | residual activity (RET (human)): -0.229% | residual activity (PAK3 (human)): 79.8% | residual activity (PRKCG (human)): 88.1% | residual activity (CSNK2A2 (human)): 96.5% | residual activity (MAP4K4 (human)): 12.5% | residual activity (RAF1 (human)): 85.9% | residual activity (EPHA8 (human)): 57.5% | residual activity (TSSK2 (human)): 95.6% | residual activity (PRKACA (human)): 92.3% | residual activity (MUSK (human)): 62.8% | residual activity (MAP3K14 (human)): 69.6% | residual activity (ADRBK2 (human)): 101% | residual activity (MAP4K5 (human)): 18.4% | residual activity (PRKD3 (human)): 91% | residual activity (IKBKB (human)): 90.8% | residual activity (GRK4 (human)): 94.7% | residual activity (KDR (human)): 6.7% | residual activity (PLK2 (human)): 106% | residual activity (MLTK (human)): 13.9% | residual activity (RPS6KA5 KD2 (human)): 83.6% | residual activity (PRKCA (human)): 95.6% | residual activity (FLT1 (human)): 8.56% | residual activity (CDK4 CCND1 (human)): 88.7% | residual activity (INSR (human)): 93.7% | residual activity (PDGFRB (human)): 39.9% | residual activity (STK11 (human)): 12.4% | residual activity (DYRK3 (human)): 89.8% | residual activity (NEK11 (human)): 89.6% | residual activity (CLK3 (human)): 74% | residual activity (ERBB4 (human)): 75.8% | residual activity (IKBKE (human)): 88.1% | residual activity (PASK (human)): 96.2% | residual activity (EPHA5 (human)): 41.7% | residual activity (MYLK2 (human)): 29.9% | residual activity (CSNK1E (human)): 92.9% | residual activity (PKN1 (human)): 105% | residual activity (CAMKK2 (human)): 95.9% | residual activity (AKT1 (human)): 92.5% | residual activity (MAPKAPK2 (human)): 108% | residual activity (CSNK1A1 (human)): 61.8%

Cc1ccc(S(=O)(=O)/C=C/C#N)cc1
residual activity (MAP3K7 TAB1 (human)): 99.9% | residual activity (EPHB2 (human)): 104% | residual activity (RET (human)): 102% | residual activity (PAK3 (human)): 105% | residual activity (PRKCG (human)): 92.9% | residual activity (CSNK2A2 (human)): 97.9% | residual activity (MAP4K4 (human)): 106% | residual activity (RAF1 (human)): 104% | residual activity (EPHA8 (human)): 96.8% | residual activity (TSSK2 (human)): 103% | residual activity (PRKACA (human)): 100% | residual activity (MUSK (human)): 107% | residual activity (MAP3K14 (human)): 103% | residual activity (ADRBK2 (human)): 99.1% | residual activity (MAP4K5 (human)): 97.8% | residual activity (PRKD3 (human)): 96.1% | residual activity (IKBKB (human)): 110% | residual activity (GRK4 (human)): 96.8% | residual activity (KDR (human)): 94.7% | residual activity (PLK2 (human)): 103% | residual activity (MLTK (human)): 94.7% | residual activity (RPS6KA5 KD2 (human)): 109% | residual activity (PRKCA (human)): 70.6% | residual activity (FLT1 (human)): 92.8% | residual activity (CDK4 CCND1 (human)): 103% | residual activity (INSR (human)): 108% | residual activity (PDGFRB (human)): 103% | residual activity (STK11 (human)): 91.1% | residual activity (DYRK3 (human)): 101% | residual activity (NEK11 (human)): 95.8% | residual activity (CLK3 (human)): 106% | residual activity (ERBB4 (human)): 99.7% | residual activity (IKBKE (human)): 101% | residual activity (PASK (human)): 99.3% | residual activity (EPHA5 (human)): 111% | residual activity (MYLK2 (human)): 105% | residual activity (CSNK1E (human)): 107% | residual activity (PKN1 (human)): 92.1% | residual activity (CAMKK2 (human)): 102% | residual activity (AKT1 (human)): 112% | residual activity (MAPKAPK2 (human)): 93.7% | residual activity (CSNK1A1 (human)): 95.6%

CO[C@H]1CC2CC[C@@H](C)[C@@](O)(O2)C(=O)C(=O)N2CCCC[C@H]2C(=O)OC([C@H](C)C[C@@H]2CC[C@@H](O)[C@H](OC)C2)CC(=O)[C@H](C)/C=C(\C)[C@@H](O)[C@@H](OC)C(=O)[C@H](C)C[C@H](C)/C=C/C=C/C=C/1C (stereo partly drawn)
residual activity (MAP3K7 TAB1 (human)): 95.2% | residual activity (EPHB2 (human)): 114% | residual activity (RET (human)): 98.7% | residual activity (PAK3 (human)): 102% | residual activity (PRKCG (human)): 106% | residual activity (CSNK2A2 (human)): 94.2% | residual activity (MAP4K4 (human)): 87.7% | residual activity (RAF1 (human)): 97.2% | residual activity (EPHA8 (human)): 92.7% | residual activity (TSSK2 (human)): 99.8% | residual activity (PRKACA (human)): 99.8% | residual activity (MUSK (human)): 87.7% | residual activity (MAP3K14 (human)): 105% | residual activity (ADRBK2 (human)): 98% | residual activity (MAP4K5 (human)): 110% | residual activity (PRKD3 (human)): 95.6% | residual activity (IKBKB (human)): 109% | residual activity (GRK4 (human)): 96.1% | residual activity (KDR (human)): 98.1% | residual activity (PLK2 (human)): 105% | residual activity (MLTK (human)): 103% | residual activity (RPS6KA5 KD2 (human)): 106% | residual activity (PRKCA (human)): 108% | residual activity (FLT1 (human)): 97.7% | residual activity (CDK4 CCND1 (human)): 115% | residual activity (INSR (human)): 90.3% | residual activity (PDGFRB (human)): 108% | residual activity (STK11 (human)): 91.1% | residual activity (DYRK3 (human)): 105% | residual activity (NEK11 (human)): 73.6% | residual activity (CLK3 (human)): 94.4% | residual activity (ERBB4 (human)): 88.7% | residual activity (IKBKE (human)): 99.4% | residual activity (PASK (human)): 101% | residual activity (EPHA5 (human)): 94.7% | residual activity (MYLK2 (human)): 103% | residual activity (CSNK1E (human)): 102% | residual activity (PKN1 (human)): 96.2% | residual activity (CAMKK2 (human)): 115% | residual activity (AKT1 (human)): 104% | residual activity (MAPKAPK2 (human)): 101% | residual activity (CSNK1A1 (human)): 99.3%
